The source of these data is patent US10399932B2, “Inhibitors of indoleamine-2,3-dioxygenase for the treatment of cancer” (BRISTOL-MYERS SQUIBB COMPANY, priority 2015, dated 2019).

pIC50: −log10 of the molar value.

For the experiment, the target named is human IDO1 (Homo sapiens, UniProt P14902). As to the kind of experiment: Assessment of human IDO-1 inhibitory activity in HEK cells (human IDO1/HEK293 cells, Ehrlich reagent, absorbance at 490 nm). Type of experiment: cell-based. Further details: expressed in transfected cells. As to conditions: In Vitro Potency in the HEK Human IDO-1 Cellular Assay. As for the experimental part:
Exemplary compounds were tested for inhibition of IDO activity.
HEK293 cells were transfected with a pCDNA-based mammalian expression vector harboring human IDO1 cDNA (NM 002164.2) by electroporation. They were cultured in medium (DMEM with 10% FBS) containing 1 mg/ml G418 for two weeks. Clones of HEK293 cells that stably expressed human IDO1 protein were selected and expanded for IDO inhibition assay.
The human IDO1/HEK293 cells were seeded at 10,000 cells per 50 μL per well with RPMI/phenol red free media contains 10% FBS in a 384-well black wall clear bottom tissue culture plate (Matrix Technologies LLC) 100 nL of certain concentration of compound was then added to each well using ECHO liquid handling systems. The cells were incubated for 20 hours in 37° C. incubator with 5% CO2.
The compound treatments were stopped by adding trichloroacetic acid (Sigma-Aldrich) to a final concentration at 0.2%. The cell plate was further incubated at 50° C. for 30 minute. The equal volume supernatant (20 μL) and 0.2% (w/v) Ehrlich reagent (4-dimethylaminobenzaldehyde, Sigma-Aldrich) in glacial acetic acid were mixed in a new clear bottom 384-well plate. This plate was then incubated at room temperature for 30 minute. The absorbance at 490 nm was measured on Envision plate reader.
Compound IC50 values were calculated using the counts of 500 nM of a reference standard treatment as one hundred percent inhibition, and counts of no compound but DMSO treatment as zero percent inhibition.

human IDO1, sequence (P14902 whole entry): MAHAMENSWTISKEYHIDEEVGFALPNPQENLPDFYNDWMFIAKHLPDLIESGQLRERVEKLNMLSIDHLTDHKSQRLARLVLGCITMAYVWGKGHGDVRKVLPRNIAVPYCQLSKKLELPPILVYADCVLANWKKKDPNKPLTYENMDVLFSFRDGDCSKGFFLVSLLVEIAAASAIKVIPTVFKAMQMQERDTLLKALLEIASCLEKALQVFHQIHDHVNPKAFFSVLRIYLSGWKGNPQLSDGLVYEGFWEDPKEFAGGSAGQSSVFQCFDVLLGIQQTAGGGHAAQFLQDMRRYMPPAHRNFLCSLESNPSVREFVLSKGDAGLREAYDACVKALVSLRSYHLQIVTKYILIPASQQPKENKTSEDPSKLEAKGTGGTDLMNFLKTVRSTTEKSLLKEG

Regarding `CCC(CC(=O)O)c1ccc(N(CC(C)C)C2CCCCC2)c(Nc2ccc(F)c(F)c2)c1` (single isomer, unassigned) [Example 306, 3-(4-(cyclohexyl(isobutyl)amino)-3-((3,4-difluorophenyl)amino)phenyl)pentanoic acid], the pIC50 was over 8.30.

`CCC(CC(=O)O)c1ccc(N(CC(C)C)C2CCCCC2)c(Nc2ccc3c(c2)OCCO3)c1` (single isomer, unassigned) [Example 317, 3-(4-(cyclohexyl(isobutyl)amino)-3-((2,3-dihydrobenzo[b][1,4]dioxin-6-yl)amino)phenyl)pentanoic acid] showed a pIC50 of over 7.30.

`CCN(c1ccc([C@@H](COC)CC(=O)O)cc1Nc1ccc2c(c1)OC(F)(F)O2)C1CCOCC1` (single isomer, unassigned) [Example 378] gave a pIC50 of over 7.30.

As for `CCOc1ccc(NC(=O)Nc2cc([C@@H](CC)CC(=O)O)ccc2N(CC)C2CCOCC2)cc1` (single isomer, unassigned) [Example 491], the pIC50 is over 7.30.

`CCOc1ccc(Nc2cc([C@H](CC)CC(=O)O)ccc2N(CC)C2CCOCC2)cc1` (single isomer, unassigned) [Example 514] gave a pIC50 of over 8.30.

The compound `CCN(c1ccc(C(CC(=O)O)c2ccccc2)cc1Nc1ccc(Cl)cc1F)C1CCOCC1` (single isomer, unassigned) [Example 582, 3-(3-((4-chloro-2-fluorophenyl)amino)-4-(ethyl(tetrahydro-2H-pyran-4-yl)amino)phenyl)-3-phenylpropanoic acid] showed a pIC50 of over 7.30.

For `CCN(c1ccc(C(CC(=O)O)c2ccccc2)cc1Nc1ccc2nc(C)sc2c1)C1CCOCC1` (single isomer, unassigned) [Example 589, 3-(4-(ethyl(tetrahydro-2H-pyran-4-yl)amino)-3-((2-methylbenzo[d]thiazol-6-yl)amino)phenyl)-3-phenylpropanoic acid], the pIC50 is under 7.30.

Turning to `CCN(c1ccc(C(CC(=O)O)c2ccccc2)cc1Nc1ccc(C#N)cc1)C1CCOCC1` (single isomer, unassigned) [Example 591, 3-(3-((4-cyanophenyl)amino)-4-(ethyl(tetrahydro-2H-pyran-4-yl)amino)phenyl)-3-phenylpropanoic acid], the pIC50 is over 8.30.

Regarding `CCN(c1ccc(C(CC(=O)O)c2ccccc2)cc1Nc1ccc(OC(F)F)cc1)C1CCOCC1` (single isomer, unassigned) [Example 593, 3-(3-((4-(difluoromethoxy)phenyl)amino)-4-(ethyl(tetrahydro-2H-pyran-4-yl)amino)phenyl)-3-phenylpropanoic acid], the pIC50 is over 7.30.

As to `CCN(c1ccc(C(CC(=O)O)c2ccccc2)cc1NC(=O)Nc1ccc(OC)cc1F)C1CCOCC1` (single isomer, unassigned) [Example 596, 3-(4-(ethyl(tetrahydro-2H-pyran-4-yl)amino)-3-(3-(2-fluoro-4-methoxyphenyl)ureido)phenyl)-3-phenylpropanoic acid], the negative-log IC50 (pIC50) is under 7.30.

In turn, `CCOc1cc(Nc2cc(C(CC)CC(=O)O)ccc2N(CC(C)C)C2CCCCC2)ccc1Cl` (single isomer, unassigned) [Example 646, 3-(3-((4-chloro-3-ethoxyphenyl)amino)-4-(cyclohexyl(isobutyl)amino)phenyl)pentanoic acid] gave a pIC50 of over 8.30.

In turn, `CCC(CC(=O)O)c1ccc(N(CC(C)C)C2CCCCC2)c(Nc2ccc(Cl)c(OCC(F)F)c2)c1` (single isomer, unassigned) [Example 650, 3-(3-((4-chloro-3-(2,2-difluoroethoxy)phenyl)amino)-4-(cyclohexyl(isobutyl)amino)phenyl)pentanoic acid] had a pIC50 of over 8.30.

Compound `CCC(CC(=O)O)c1ccc(N(CC(C)C)C2CCCCC2)c(Nc2ccc(Cl)c(OCC(F)(F)F)c2)c1` (single isomer, unassigned) [Example 651, 3-(3-((4-chloro-3-(2,2,2-trifluoroethoxy)phenyl)amino)-4-(cyclohexyl(isobutyl)amino)phenyl)pentanoic acid] showed a pIC50 of over 7.30.

Take `CCC(CC(=O)O)c1ccc(N(CC(C)C)C2CCCCC2)c(Nc2ccc(Cl)c(OCC3CC3)c2)c1` (single isomer, unassigned) [Example 652, 3-(3-((4-chloro-3-(cyclopropylmethoxy)phenyl)amino)-4-(cyclohexyl(isobutyl)amino)phenyl)pentanoic acid]: the pIC50 was over 7.30.

Regarding `CCOc1cc(Nc2cc(C(CC)CC(=O)O)ccc2N(CC(C)C)C2CCCCC2)ccc1Cl` (single isomer, unassigned) [Example 653, 3-(3-((4-chloro-3-ethoxyphenyl)amino)-4-(cyclohexyl(isobutyl)amino)phenyl)pentanoic acid], the pIC50 was over 7.30.

For `CCC(CC(=O)O)c1ccc(N(CC(C)C)C2CCCCC2)c(Nc2cnc(OC(C)C)nc2)c1` (single isomer, unassigned) [Example 655, 3-(4-(cyclohexyl(isobutyl)amino)-3-((2-isopropoxypyrimidin-5-yl)amino)phenyl)pentanoic acid], the pIC50 is over 8.30.

`COCC(CC(=O)O)c1ccc(N(CC2CC2)C2CCOCC2)c(NC(=O)Nc2ccc(C)cc2)c1` (single isomer, unassigned) [Example 677, 3-(4-((Cyclopropylmethyl)(tetrahydro-2H-pyran-4-yl)amino)-3-(3-(p-tolyl)ureido)phenyl)-4-methoxybutanoic acid] showed a pIC50 of under 7.30.

As to `CCC(CC(=O)O)c1ccc(N(CC2CC2)C2CCOCC2)c(NC(=O)Nc2ccc(Cl)cc2F)c1` (single isomer, unassigned) [Example 699, 3-(3-(3-(4-Chloro-2-fluorophenyl)ureido)-4-((cyclopropylmethyl)(tetrahydro-2H-pyran-4-yl)amino)phenyl)pentanoic acid], the pIC50 is over 8.30.

Turning to `CCC(CC(=O)O)c1ccc(N(CC2CC2)C2CCOCC2)c(NC(=O)Nc2cc(C)on2)c1` (single isomer, unassigned) [Example 700, 3-(4-((Cyclopropylmethyl)(tetrahydro-2H-pyran-4-yl)amino)-3-(3-(5-methylisoxazol-3-yl)ureido)phenyl)pentanoic acid], the pIC50 is under 7.30.

The compound `CCC(CC(=O)O)c1ccc(N(CC2CC2)C2CCOCC2)c(Nc2ccc3nc(C)sc3c2)c1` (single isomer, unassigned) [Example 707, 3-(4-((Cyclopropylmethyl)(tetrahydro-2H-pyran-4-yl)amino)-3-((2-methylbenzo[d]thiazol-6-yl)amino)phenyl)pentanoic acid] had a pIC50 of over 7.30.

`CCC(CC(=O)O)c1ccc(N(CC2CC2)C2CCOCC2)c(Nc2ccc(Cl)cc2)c1` (single isomer, unassigned) [Example 708, 3-(3-((4-chlorophenyl)amino)-4-((cyclopropylmethyl)(tetrahydro-2H-pyran-4-yl)amino)phenyl)pentanoic acid] had a pIC50 of over 8.30.

As for `CCC(CC(=O)O)c1ccc(N(CC2CC2)C2CCOCC2)c(Nc2cnc(OC)nc2)c1` (single isomer, unassigned) [Example 709, 3-(4-((cyclopropylmethyl)(tetrahydro-2H-pyran-4-yl)amino)-3-((2-methoxypyrimidin-5-yl)amino)phenyl)pentanoic acid], the pIC50 was over 8.30.

`CCC(CC(=O)O)c1ccc(N(CC2CC2)C2CCOCC2)c(Nc2ccc3c(c2)OC(F)(F)O3)c1` (single isomer, unassigned) [Example 710, 3-(4-((cyclopropylmethyl)(tetrahydro-2H-pyran-4-yl)amino)-3-((2,2-difluorobenzo[d][1,3]dioxol-5-yl)amino)phenyl)pentanoic acid] gave a pIC50 of over 8.30.

`CCOc1ncc(Nc2cc(C(CC)CC(=O)O)ccc2N(CC2CC2)C2CCOCC2)cn1` (single isomer, unassigned) [Example 711, 3-(4-((cyclopropylmethyl)(tetrahydro-2H-pyran-4-yl)amino)-3-((2-ethoxypyrimidin-5-yl)amino)phenyl)pentanoic acid] showed a pIC50 of over 8.30.

`CCC(CC(=O)O)c1ccc(N(CC2CC2)C2CCOCC2)c(Nc2ccc(C#N)cc2)c1` (single isomer, unassigned) [Example 712, 3-(3-((4-cyanophenyl)amino)-4-((cyclopropylmethyl)(tetrahydro-2H-pyran-4-yl)amino)phenyl)pentanoic acid] showed a pIC50 of over 8.30.

Compound `CCC(CC(=O)O)c1ccc(N(CC2CC2)C(C)C)c(Nc2ccc(Cl)cc2)c1` (single isomer, unassigned) [Example 717, 3-(3-((4-chlorophenyl)amino)-4-((cyclopropylmethyl)(isopropyl)amino)phenyl)pentanoic acid] showed a pIC50 of over 8.30.

For the compound `CCC(CC(=O)O)c1ccc(N(CC(C)C)C(C)C)c(Nc2ccc(Cl)cc2)c1` (single isomer, unassigned) [Example 728, 3-(3-((4-Chlorophenyl)amino)-4-(isobutyl(isopropyl)amino)phenyl)pentanoic acid], the pIC50 is over 8.30.

For the compound `CC(CC(=O)O)c1ccc(N2C[C@@H](C)O[C@@H](C)C2)c(Nc2ccc(C#N)cc2)c1` (single isomer, unassigned) [Example 743], the pIC50 was under 7.30.

In turn, `CC(CC(=O)O)c1ccc(N2C[C@@H](C)O[C@@H](C)C2)c(Nc2ccc(F)cc2)c1` (single isomer, unassigned) [Example 744] had a pIC50 of under 7.30.

Broadly, the pIC50 is −log10 of the IC50, conventionally taken in molar units.
